Measurements from patent US5234947A, “Potassium channel activating compounds and methods of use thereof” (New York University, priority 1991, dated 1993).
“Also recorded” adds a separate entry of the source.

What was measured:
potassium channel = potassium channel activation (method not described); format: biochemical
craving for a cigarette = format: in vivo; details: cigarette smoking
From the text: The interference with the effects of withdrawal symptoms from addictive substances of the subject compounds is also consistent with potassium channel activation. […] As one gets a craving for a cigarette, there is a perception of muscular tension. The effects of potassium channel activators are to lower the blood pressure, relax the muscles and make breathing easier, all of which counteracts the feeling of craving one experiences upon withdrawal from an addictive substance.

[1] = molecular target: T1, large 200-220 pS channel (large Ca++-dependent K+ channel) (Rattus norvegicus, UniProt Q62976); experiment: lipid bilayer technique, rat brain membranes fused with a bilayer on a patch-clamp pipette; format: biochemical
T1 construct: single-channel recording
T1 sequence (Q62976 whole entry, the tested form may be a part): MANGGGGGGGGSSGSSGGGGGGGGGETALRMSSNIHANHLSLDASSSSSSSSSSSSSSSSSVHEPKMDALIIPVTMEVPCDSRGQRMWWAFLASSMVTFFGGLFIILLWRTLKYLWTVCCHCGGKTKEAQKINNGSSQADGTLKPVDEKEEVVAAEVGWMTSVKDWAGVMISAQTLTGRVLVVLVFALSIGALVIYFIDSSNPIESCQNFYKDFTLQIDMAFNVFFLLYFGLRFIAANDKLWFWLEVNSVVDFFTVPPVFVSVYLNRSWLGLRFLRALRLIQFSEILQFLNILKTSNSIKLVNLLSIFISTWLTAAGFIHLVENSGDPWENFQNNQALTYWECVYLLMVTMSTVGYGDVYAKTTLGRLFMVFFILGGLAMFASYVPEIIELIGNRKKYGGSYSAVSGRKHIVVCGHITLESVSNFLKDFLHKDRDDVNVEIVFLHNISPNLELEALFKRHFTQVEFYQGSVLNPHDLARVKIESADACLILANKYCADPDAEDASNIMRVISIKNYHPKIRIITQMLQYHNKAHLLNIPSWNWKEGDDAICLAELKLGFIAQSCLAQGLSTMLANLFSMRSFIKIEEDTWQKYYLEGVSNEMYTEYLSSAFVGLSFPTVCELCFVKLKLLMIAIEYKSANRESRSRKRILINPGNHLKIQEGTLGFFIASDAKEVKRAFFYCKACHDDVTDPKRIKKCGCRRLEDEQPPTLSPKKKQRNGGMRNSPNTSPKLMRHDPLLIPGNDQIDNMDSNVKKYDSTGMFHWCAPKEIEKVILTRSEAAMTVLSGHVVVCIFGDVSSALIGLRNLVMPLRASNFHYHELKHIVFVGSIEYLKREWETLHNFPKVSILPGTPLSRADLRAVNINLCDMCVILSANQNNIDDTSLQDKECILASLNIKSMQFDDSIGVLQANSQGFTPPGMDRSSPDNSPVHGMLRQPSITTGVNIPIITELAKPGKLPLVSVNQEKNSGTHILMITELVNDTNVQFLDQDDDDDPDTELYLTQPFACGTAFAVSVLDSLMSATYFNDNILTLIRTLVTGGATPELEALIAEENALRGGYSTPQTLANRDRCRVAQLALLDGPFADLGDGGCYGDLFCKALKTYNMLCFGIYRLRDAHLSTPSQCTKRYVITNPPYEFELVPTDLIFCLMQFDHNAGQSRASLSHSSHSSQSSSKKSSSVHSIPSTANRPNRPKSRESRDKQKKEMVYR
Method: Isolated avena pyrone was studied for its action against ionic channels in cell membranes using the lipid bilayer technique. Membranes from rat brain were fused with a lipid bilayer formed across the opening of a patch-clamp pipette. Electrical activity was monitored using an Axon Instruments Axopatch amplifier using 100 mM symmetrical KCl solutions. In the presence of elevated levels of calcium, at least three types of potassium channel can be determined: a small 25-50 pS channel, a 90-120 pS channel, and a large 200-220 pS channel. In the absence of calcium in the bathing solutions, openings of the large 200 pS channel are rarely seen.
FIGS. 1 and 2 show the exposure of the channels to potassium in the presence of avena pyrone. In the two tracings in FIG. 1, the membrane potential was held at -25 mV. Under these conditions, the mid-sized K^+ channel is very active but the large channel is rarely open during the approximately 1.5 seconds shown. […] The effect is most pronounced under low calcium conditions.

| SMILES | potassium channel activation (potassium channel) | craving for a cigarette (craving for a cigarette) | activation of the large K+ channel ([1]; absence of calcium / low calcium, 100 mM symmetrical KCl, membrane potential -25 mV) | open times of the large channel ([1]; avena pyrone added to the bath, -25 mV) | open probability of the large channel ([1]; avena pyrone added to the bathing solution) | activation of the large channel ([1]; conditions of greater calcium concentration) |
| --- | --- | --- | --- | --- | --- | --- |
| COC1=CC(=O)O[C@@H](/C=C/c2ccccc2)C1 [kawain] | potassium channel activating substance |  |  |  |  |  |
| CC1CCCC(=O)O1 (stereo not drawn) [avena pyrone, 2H-6-methyltetrahydropyran-2-one] |  | reduce the craving for a cigarette | activation of the large K^+ channel is seen; also recorded: the large channel was activated | very long open times; also recorded: increased from a few milliseconds to times approaching seconds | increased open probability; also recorded: substantially increasing the open probability | still capable of activation of the channel but to a lesser degree |
